Reference: patent US4758572A, “Antiviral combinations” (Burroughs Wellcome Co., priority 1983, dated 1988)
Read-outs that look alike come from different tables or passages of the source.

Tested on: HSV type1 H29 Strain
Test: Yield reduction assay with HSV type 1 H29 strain
Assay type: cell-based, herpes simplex virus type 1
Conditions: read-out: ED50 (the source's name)
Source text: (1) Examples of Mutual Enhancement of the Antiherpetic Activities of 2-Acetylpyridine-4-(2-morpholinoethyl)thiosemicarbazone (compound A) and Acyclovir (ACV).
^a Yield reduction assay with HSV type1 H29 Strain

Compound | EC50 (Addition: none) | EC50 (Compound A with addition of 0.2 μM ACV) | EC50 (ACV with addition of 1 μM Compound A)
CC(=NNC(=S)NCCN1CCOCC1)c1ccccn1 [Compound A, 2-Acetylpyridine-4-(2-morpholinoethyl)thiosemicarbazone] | 5000 nM | 700 nM | –
Nc1nc2c(ncn2COCCO)c(=O)[nH]1 [ACV, 9-(2-hydroxyethoxymethyl)guanine] | 600 nM | – | 20 nM
